Experimental data: the OligoGym collection
After the bases stand the sugars from the 5' end (letter, count) and the backbone: PS all phosphorothioate, else s phosphorothioate and o phosphodiester by linkage. Methylation of C is not given here. e = 2'-O-(2-methoxyethyl) (MOE); k = constrained ethyl (cEt); d = 2'-deoxy (DNA); m = 2'-O-methyl

Molecular target: HSD17B13
Conditions: ASO, HepaRG

Row | Sequence | target mRNA inhibition (1 µM) [%] | other results
1 | AAACAAGAGGATAGTC (sugars k3 d10 k3, PS) | 48 | 
2 | TGTCUAAACATCTCTG (sugars k3 d1 m1 d8 k3, PS) | 44 | 
3 | GCATTAAAACTCTCAT (sugars k3 d10 k3, PS) | 35 | 
4 | AATAGCCATGTAGCTA (sugars k3 d10 k3, PS) | 28 | 
5 | GCTCCATAATAATAGC (sugars kkdddddddddkekek, PS) | 15 | 
6 | ACGCCTAGTTTTCGGC (sugars k3 d10 k3, PS) | 7 | 
7 | TGTCTAAACATCTCTG (sugars k3 d9 k3 e1, PS) | 69 | 
8 | TATTTCGCTACTGTAG (sugars k3 d10 k3, PS) | 48 | 
9 | AGGGAGGTAGCTTTTG (sugars k3 d10 k3, PS) | 46 | 
10 | TGCGAGAAATCTAAGA (sugars k3 d10 k3, PS) | 50 | 
11 | CTCTTTTTATAGACTG (sugars k3 d10 k3, PS) | 63 | 
12 | TATATAACATGGCTGG (sugars k3 d10 k3, PS) | 8 | 
13 | AGACTAAGGGACCAGG (sugars k3 d10 k3, PS) | 80 | target mRNA inhibition (0.02 µM): 22%; target mRNA inhibition (0.078 µM): 24%; target mRNA inhibition (0.313 µM): 56%; target mRNA inhibition (1.25 µM): 90%; target mRNA inhibition (5 µM): 94%
14 | TTTAGAATACGCTGAG (sugars k3 d10 k3, PS) | 44 | 
15 | TGATATACGATGGAAC (sugars k3 d10 k3, PS) | 13 | 
16 | TCCGGTAAGAATTTCG (sugars k3 d10 k3, PS) | 63 | 
17 | TAGCTAAGTATACTTT (sugars k3 d10 k3, PS) | 10 | 
18 | ACCAAACTTGCCCATA (sugars k3 d10 k3, PS) | 46 | 
19 | ACCATAGGACATGGAG (sugars k3 d10 k3, PS) | 62 | 
20 | GAATAGCAAGCCAACA (sugars k3 d9 k3 e1, PS) | 30 | 
21 | TCGGGAAGTTTAGACA (sugars k3 d10 k3, PS) | 43 | 
22 | ATGTCCTAGGATGTTG (sugars k3 d10 k3, PS) | 50 | 
23 | TTGGTGAACCCAGTAT (sugars k3 d10 k3, PS) | 31 | 
24 | AGAGGCAAGGATACCT (sugars k3 d10 k3, PS) | 78 | target mRNA inhibition (0.02 µM): 5%; target mRNA inhibition (0.078 µM): 7%; target mRNA inhibition (0.313 µM): 39%; target mRNA inhibition (1.25 µM): 68%; target mRNA inhibition (5 µM): 40%

Row | Sequence | target mRNA inhibition (1 µM) [%] | other results
25 | AACATCTCTGGGACCA (sugars kkdddddddddkekek, PS) | 36 | 
26 | CCTACCAAGAGGGTTT (sugars k3 d10 k3, PS) | 34 | 
27 | AATATGGGATGAGGTA (sugars k3 d9 k3 e1, PS) | 47 | 
28 | GATATACTGTCCCAGC (sugars k3 d10 k3, PS) | 34 | 
29 | AGTCTTAAACCTTCCC (sugars k3 d9 k3 e1, PS) | 61 | 
30 | TTTTTAATACGACTTC (sugars k3 d10 k3, PS) | 52 | 
31 | TATTAGAAGTCAGCCC (sugars k3 d1 m1 d8 k3, PS) | 29 | 
32 | CTTTGAGACTCTTGTT (sugars kkdddddddddkekek, PS) | 42 | 
33 | AAGACTTTGAGACTCT (sugars k3 d10 k3, PS) | 62 | 
34 | CTGCCCTAGATTCTAC (sugars k3 d10 k3, PS) | 33 | 
35 | CCAAAAATGTCCTAGG (sugars k3 d10 k3, PS) | 38 | 
36 | AGTACAGTTCCTTTTC (sugars kkdddddddddkekek, PS) | 40 | 
37 | CACTCAGCTGCAGTTT (sugars k3 d10 k3, PS) | 13 | 
38 | GATTAAGCAGAATTGT (sugars k3 d9 k3 e1, PS) | 28 | 
39 | ACCAACTATGTAATAG (sugars k3 d10 k3, PS) | 47 | 
40 | AGCTACCTCCAAATTC (sugars k3 d10 k3, PS) | 0 | 
41 | TGAGGTTTTGATACCA (sugars k3 d10 k3, PS) | 63 | 
42 | GCAAGCCAACAGAGAG (sugars kkdddddddddkekek, PS) | 12 | 
43 | GTATAGTTATCTTCTC (sugars kkkdddddkdddkkke, PS) | 68 | 
44 | CTAGTGCCAAACCAAT (sugars kkdddddddddkekek, PS) | 47 | 
45 | GAAAGATGGAATGAGC (sugars k3 d10 k3, PS) | 54 | 
46 | GACCTCAAATGTCTTG (sugars k3 d10 k3, PS) | 12 | 
47 | CTTTTGTCCACCTTTA (sugars k3 d10 k3, PS) | 76 | 
48 | ACATUAGCAAGCTAAG (sugars k3 d1 m1 d8 k3, PS) | 23 | 

Row | Sequence | target mRNA inhibition (1 µM) [%] | other results
49 | GTTTTCGGCACTCAGC (sugars k3 d10 k3, PS) | 51 | 
50 | CCTAGATTCTACACTA (sugars k3 d10 k3, PS) | 14 | 
51 | GGAAATATAGAGGGTC (sugars k3 d10 k3, PS) | 50 | 
52 | TTCATAAGTAGTCTGC (sugars k3 d10 k3, PS) | 64 | 
53 | GCTGAGAAGATCGGCT (sugars k3 d10 k3, PS) | 10 | 
54 | TTAATCATGGGACAGG (sugars k3 d10 k3, PS) | 27 | 
55 | AATAAAGCTTTGCAGC (sugars k3 d10 k3, PS) | 26 | 
56 | GGGAGTCGGATTATTT (sugars k3 d10 k3, PS) | 33 | 
57 | CAGCATTGATTCGAAA (sugars k3 d10 k3, PS) | 69 | target mRNA inhibition (0.02 µM): 2%; target mRNA inhibition (0.078 µM): 0%; target mRNA inhibition (0.313 µM): 26%; target mRNA inhibition (1.25 µM): 56%; target mRNA inhibition (5 µM): 65%
58 | ATGTTATCTCAAGTCA (sugars k3 d10 k3, PS) | 79 | 
59 | CTGCATTAATGCCACC (sugars k3 d10 k3, PS) | 67 | target mRNA inhibition (0.02 µM): 0%; target mRNA inhibition (0.078 µM): 0%; target mRNA inhibition (0.313 µM): 17%; target mRNA inhibition (1.25 µM): 40%; target mRNA inhibition (5 µM): 81%
60 | ACAATATGGGATGAGG (sugars k3 d9 k3 e1, PS) | 76 | target mRNA inhibition (0.02 µM): 0%; target mRNA inhibition (0.078 µM): 0%; target mRNA inhibition (0.313 µM): 0%; target mRNA inhibition (1.25 µM): 39%; target mRNA inhibition (5 µM): 55%
61 | ATCCTTGGTGCTGAGA (sugars k3 d10 k3, PS) | 13 | 
62 | GGTAAGCCCCATGCCA (sugars k3 d10 k3, PS) | 38 | 
63 | ATCTATCATGCCTTCC (sugars k3 d10 k3, PS) | 6 | 
64 | ATCTTAAGATACCCAG (sugars kkdddddddddkekek, PS) | 45 | 
65 | TACAGATTGGAATGCT (sugars k3 d9 k3 e1, PS) | 66 | 
66 | TTTAGTATTTGGGTGT (sugars k3 d10 k3, PS) | 21 | 
67 | TAACATTCGGCTAGGC (sugars k3 d10 k3, PS) | 52 | 
68 | ACATCTCTGGGACCAA (sugars kkdddddddddkekek, PS) | 67 | 
69 | AATTCACCTTGACTAA (sugars k3 d9 k3 e1, PS) | 16 | 
70 | GAATAGCAAGCCAACA (sugars kkdddddddddkekek, PS) | 27 | 
71 | CTTATGTAATAGCCAG (sugars k2 d10 k3 e1, PS) | 70 | 
72 | TGAGGTAAGGAATCCC (sugars k3 d10 k3, PS) | 2 | 

Row | Sequence | target mRNA inhibition (1 µM) [%] | other results
73 | CCAGAAAGTTCATTCG (sugars k3 d10 k3, PS) | 81 | target mRNA inhibition (0.02 µM): 38%; target mRNA inhibition (0.078 µM): 51%; target mRNA inhibition (0.313 µM): 64%; target mRNA inhibition (1.25 µM): 79%; target mRNA inhibition (5 µM): 91%
74 | ACTTCAGAGTTATACA (sugars k3 d10 k3, PS) | 35 | 
75 | TAGGAAGTGATCCATA (sugars k3 d10 k3, PS) | 30 | 
76 | CCCAATTATGAATCTG (sugars k3 d10 k3, PS) | 62 | 
77 | ATGTATCTTATAAGAC (sugars k3 d10 k3, PS) | 0 | 
78 | GAGGATAGTGAACATA (sugars k3 d10 k3, PS) | 50 | 
79 | TTATCATACCACATAC (sugars k3 d10 k3, PS) | 19 | 
80 | AAGAGGATAGTCCATG (sugars k3 d10 k3, PS) | 65 | 
81 | GACAACAAACAATGGG (sugars k3 d10 k3, PS) | 39 | 
82 | ACAAGATTAGTCTTGA (sugars k3 d10 k3, PS) | 45 | 
83 | AGTCUTAAACCTTCCC (sugars k3 d1 m1 d8 k3, PS) | 52 | 
84 | CCTTGTGTAGTCCTAG (sugars k3 d10 k3, PS) | 67 | target mRNA inhibition (0.02 µM): 4%; target mRNA inhibition (0.078 µM): 28%; target mRNA inhibition (0.313 µM): 44%; target mRNA inhibition (1.25 µM): 72%; target mRNA inhibition (5 µM): 85%
85 | CACTAATATTGAGGCA (sugars k3 d10 k3, PS) | 31 | 
86 | TGAATAGCAAGCCAAC (sugars k3 d10 k3, PS) | 4 | 
87 | CAAAAGTGTCCTCGAT (sugars k3 d10 k3, PS) | 5 | 
88 | AAGACAGACCAAGTAG (sugars k3 d10 k3, PS) | 16 | 
89 | GTATGGTAAGCCCCAT (sugars k3 d10 k3, PS) | 36 | 
90 | AGGGAATTTATCAAAC (sugars k3 d10 k3, PS) | 47 | 
91 | CTTCATAGTGGACTTC (sugars kkdddddddddkekek, PS) | 45 | 
92 | GTAACTGTATTAAGAC (sugars k3 d10 k3, PS) | 54 | 
93 | CTGCCAGATTGCACAA (sugars k3 d10 k3, PS) | 44 | 
94 | TTTTACTGGGATACTA (sugars k3 d10 k3, PS) | 27 | 
95 | TTCTGATGTCAGACCT (sugars k3 d10 k3, PS) | 42 | 
96 | TAGAGTGAATCATTCA (sugars k3 d10 k3, PS) | 75 | target mRNA inhibition (0.02 µM): 16%; target mRNA inhibition (0.078 µM): 33%; target mRNA inhibition (0.313 µM): 60%; target mRNA inhibition (1.25 µM): 84%; target mRNA inhibition (5 µM): 92%
